Test results published in patent US20190209472A1, “FORMULATIONS FOR DERMAL DELIVERY OF POLYMER CONJUGATES OF INDOLOCARBAZOLE COMPOUNDS WITH REDUCED EXPOSURE” (Sienna Biopharmaceuticals, Inc., priority 2017, published 2019).
Where two headings read alike, the source gives them in different places.

System: lesions of psoriasis vulgaris
From the text: This was a Phase I, single-center, randomized, double-blind, placebo-controlled study in male and female patients with stable psoriasis vulgaris aged >18 and <71 years. Sixteen patients were enrolled in 2 treatment groups. […] Patients attended a screening visit within 21 days prior to Day 1. Patients were then admitted to the CPU in the afternoon of Day −1 and remained resident in the CPU until the morning of Day 8. Patients attended a follow-up visit 7 to 10 days after the last treatment administration on Day 7.
The ointment was applied by the CPU staff, using a spatula and finger cot.
Physicians Global Assessment (PGA) scores were assessed at screening, Day 1, Day 7 and at follow-up. Digital photographs of the application sites were also taken on admission to the CPU, Day 7 and at follow-up.

Substance: (9S, 10R, 12R)-10-(3′-mPEG2000-1′,3′-oxazolidine-2′,4′-dione)-2,3,9,10,11,12-hexahydro-9-methyl-1-oxo-9,12-epoxy-1H-diindolo[1,2,3-fg:3′,2′,1′-k,l]pyrrolo[3,4-i][1,6] benzodiazocine] [CT327]
- Complete resolution of plaque(s) (7-day dosing period): No patients showed complete resolution
- PGA Erythma 1: FAINT ERYTHEMA, patients (%) (Plaque 1, DAY 1, N = 12): (16.7%)
- PGA Erythma 2: LIGHT RED COLOURATION, patients (%) (Plaque 1, DAY 1, N = 12): (66.7%)
- PGA Erythma 3: MODERATE RED COLOURATION, patients (%) (Plaque 1, DAY 1, N = 12): (8.3%)
- PGA Erythma 4: BRIGHT RED COLOURATION, patients (%) (Plaque 1, DAY 1, N = 12): (8.3%)
- PGA Induration 1: MINIMAL PLAQUE ELEVATION, =0.25 MM, patients (%) (Plaque 1, DAY 1, N = 12): (33.3%)
- PGA Induration 2: MILD PLAQUE ELEVATION, =0.5 MM, patients (%) (Plaque 1, DAY 1, N = 12): (41.7%)
- PGA Induration 3: MODERATE PLAQUE ELEVATION, =0.75 MM, patients (%) (Plaque 1, DAY 1, N = 12): (25.0%)
- PGA Scaling 2: MILD, FINE SCALE DOMINATES, patients (%) (Plaque 1, DAY 1, N = 12): (58.3%)
- PGA Scaling 3: MODERATE, COARSE SCALE PREDOMINATES, patients (%) (Plaque 1, DAY 1, N = 12): (33.3%)
- PGA Scaling 4: MARKED, THICK, NON-TENACIOUS SCALE DOMINATES, patients (%) (Plaque 1, DAY 1, N = 12): (8.3%)
- Physician Static Global Score 1: MINIMAL, patients (%) (Plaque 1, DAY 1, N = 12): (8.3%)
- Physician Static Global Score 2: MILD, patients (%) (Plaque 1, DAY 1, N = 12): (58.3%)
- Physician Static Global Score 3: MODERATE, patients (%) (Plaque 1, DAY 1, N = 12): (33.3%)
- PGA Erythma 1: FAINT ERYTHEMA, patients (%) (Plaque 1, DAY 7, N = 12): (16.7%)
- PGA Erythma 2: LIGHT RED COLOURATION, patients (%) (Plaque 1, DAY 7, N = 12): (66.7%)
- PGA Erythma 3: MODERATE RED COLOURATION, patients (%) (Plaque 1, DAY 7, N = 12): (8.3%)
- PGA Erythma 4: BRIGHT RED COLOURATION, patients (%) (Plaque 1, DAY 7, N = 12): (8.3%)
- PGA Induration 1: MINIMAL PLAQUE ELEVATION, =0.25 MM, patients (%) (Plaque 1, DAY 7, N = 12): (66.7%)
- PGA Induration 2: MILD PLAQUE ELEVATION, =0.5 MM, patients (%) (Plaque 1, DAY 7, N = 12): (33.3%)
- PGA Scaling 0: NO EVIDENCE OF SCALING, patients (%) (Plaque 1, DAY 7, N = 12): (8.3%)
- PGA Scaling 1: MINIMAL, OCCASIONAL FINE SCALE OVER LESS THAN 5% OF THE LESION, patients (%) (Plaque 1, DAY 7, N = 12): (58.3%)
- PGA Scaling 2: MILD, FINE SCALE DOMINATES, patients (%) (Plaque 1, DAY 7, N = 12): (33.3%)
- Physician Static Global Score 1: MINIMAL, patients (%) (Plaque 1, DAY 7, N = 12): (41.7%)
- Physician Static Global Score 2: MILD, patients (%) (Plaque 1, DAY 7, N = 12): (50.0%)
- Physician Static Global Score 3: MODERATE, patients (%) (Plaque 1, DAY 7, N = 12): (8.3%)
- PGA Erythma 1: FAINT ERYTHEMA, patients (%) (Plaque 1, FOLLOW-UP, N = 12): (33.3%)
- PGA Erythma 2: LIGHT RED COLOURATION, patients (%) (Plaque 1, FOLLOW-UP, N = 12): (58.3%)
- PGA Erythma 4: BRIGHT RED COLOURATION, patients (%) (Plaque 1, FOLLOW-UP, N = 12): (8.3%)
- PGA Induration 1: MINIMAL PLAQUE ELEVATION, =0.25 MM, patients (%) (Plaque 1, FOLLOW-UP, N = 12): (33.3%)
- PGA Induration 2: MILD PLAQUE ELEVATION, =0.5 MM, patients (%) (Plaque 1, FOLLOW-UP, N = 12): (66.7%)
- PGA Scaling 1: MINIMAL, OCCASIONAL FINE SCALE OVER LESS THAN 5% OF THE LESION, patients (%) (Plaque 1, FOLLOW-UP, N = 12): (16.7%)
- PGA Scaling 2: MILD, FINE SCALE DOMINATES, patients (%) (Plaque 1, FOLLOW-UP, N = 12): (58.3%)
- PGA Scaling 3: MODERATE, COARSE SCALE PREDOMINATES, patients (%) (Plaque 1, FOLLOW-UP, N = 12): (25.0%)
- Physician Static Global Score 1: MINIMAL, patients (%) (Plaque 1, FOLLOW-UP, N = 12): (16.7%)
- Physician Static Global Score 2: MILD, patients (%) (Plaque 1, FOLLOW-UP, N = 12): (75.0%)
- Physician Static Global Score 3: MODERATE, patients (%) (Plaque 1, FOLLOW-UP, N = 12): (8.3%)
- PGA Erythma 1: FAINT ERYTHEMA, patients (%) (Plaque 1, SCREENING, N = 12): (8.3%)
- PGA Erythma 2: LIGHT RED COLOURATION, patients (%) (Plaque 1, SCREENING, N = 12): (41.7%)
- PGA Erythma 3: MODERATE RED COLOURATION, patients (%) (Plaque 1, SCREENING, N = 12): (41.7%)
- PGA Erythma 4: BRIGHT RED COLOURATION, patients (%) (Plaque 1, SCREENING, N = 12): (8.3%)
- PGA Induration 1: MINIMAL PLAQUE ELEVATION, =0.25 MM, patients (%) (Plaque 1, SCREENING, N = 12): (33.3%)
- PGA Induration 2: MILD PLAQUE ELEVATION, =0.5 MM, patients (%) (Plaque 1, SCREENING, N = 12): (50.0%)
- PGA Induration 3: MODERATE PLAQUE ELEVATION, =0.75 MM, patients (%) (Plaque 1, SCREENING, N = 12): (8.3%)
- PGA Induration 4: MARKED PLAQUE ELEVATION, =1 MM, patients (%) (Plaque 1, SCREENING, N = 12): (8.3%)
- PGA Scaling 1: MINIMAL, OCCASIONAL FINE SCALE OVER LESS THAN 5% OF THE LESION, patients (%) (Plaque 1, SCREENING, N = 12): (16.7%)
- PGA Scaling 2: MILD, FINE SCALE DOMINATES, patients (%) (Plaque 1, SCREENING, N = 12): (33.3%)
- PGA Scaling 3: MODERATE, COARSE SCALE PREDOMINATES, patients (%) (Plaque 1, SCREENING, N = 12): (41.7%)
- PGA Scaling 4: MARKED, THICK, NON-TENACIOUS SCALE DOMINATES, patients (%) (Plaque 1, SCREENING, N = 12): (8.3%)
- Physician Static Global Score 1: MINIMAL, patients (%) (Plaque 1, SCREENING, N = 12): (16.7%)
- Physician Static Global Score 2: MILD, patients (%) (Plaque 1, SCREENING, N = 12): (41.7%)
- Physician Static Global Score 3: MODERATE, patients (%) (Plaque 1, SCREENING, N = 12): (33.3%)
- Physician Static Global Score 4: MARKED, patients (%) (Plaque 1, SCREENING, N = 12): (8.3%)
- PGA Erythma 2: LIGHT RED COLOURATION, patients (%) (Plaque 2, DAY 1, N = 12): (33.3%)
- PGA Induration 1: MINIMAL PLAQUE ELEVATION, =0.25 MM, patients (%) (Plaque 2, DAY 1, N = 12): (8.3%)
- PGA Induration 2: MILD PLAQUE ELEVATION, =0.5 MM, patients (%) (Plaque 2, DAY 1, N = 12): (16.7%)
- PGA Induration 3: MODERATE PLAQUE ELEVATION, =0.75 MM, patients (%) (Plaque 2, DAY 1, N = 12): (8.3%)
- PGA Scaling 2: MILD, FINE SCALE DOMINATES, patients (%) (Plaque 2, DAY 1, N = 12): (16.7%)
